Source: ChEMBL document CHEMBL1152311, “A multipronged approach to the study of peruvian ethnomedicinal plants: a legacy of the ICBG-Peru Project” (J Nat Prod, 2009)

System: Mycobacterium tuberculosis
Assay: Antituberculosis activity against multidrug-resistant Mycobacterium tuberculosis
Type: functional, organism-based

**Q.** Which IC50 does the source give for `C[C@H](C/C=C\C(C)(C)OO)[C@H]1CC[C@@]2(C)[C@@H]3CC[C@H]4C(C)(C)[C@@H](O)CC[C@@]45C[C@@]35CC[C@]12C` here?
**A.** Its IC50 is 27.3 µM.
